According to patent US20250034159A1, “INHIBITORS OF EPIDERMAL GROWTH FACTOR RECEPTOR” (ORIC Pharmaceuticals, Inc., priority 2021, published 2025):
Like-named read-outs stand apart in the source and are kept apart here.

Key:
[1] = target: recombinant human EGFR exon 19 deletion/C797S double mutant protein (Homo sapiens (Human), UniProt P00533, C797S/DEL746-750); test: Biological Activity Assay C: biochemical assay against EGFR exon 19 deletion/C797S protein (EGFR d19/CS)
Method in brief: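 Compounds were tested as 16-point serial dilutions (final DMSO 2.5%) with a Phosphosens peptide sensor/ATP working solution (40 uM/4 mM). The signal was read kinetically over 90 cycles at 120 s intervals. IC50s came from 4-parameter fits of per-well slopes.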

Ba/F3_EGFR WT cells = test: Biological Activity Assay D: BaF3 cell proliferation assay, EGFR wild-type (BaF3 WT); format: cell-based; conditions: Ba/F3 EGFR, read-out: BaF3 WT IC50
BaF3_EGFR LR/CS cells = test: Biological Activity Assay D: BaF3 cell proliferation assay, EGFR L858R/C797S mutant (BaF3 LR/CS); format: cell-based; conditions: Ba/F3 EGFR, read-out: BaF3 LR/CS IC50
BaF3_EGFR d19/CS cells = test: Biological Activity Assay D: BaF3 cell proliferation assay, EGFR exon 19 deletion/C797S (BaF3 d19/CS); format: cell-based; conditions: Ba/F3 EGFR, read-out: BaF3 d19/CS IC50
[2] = Ba/F3_EGFR WT cells, ~72 hours, CellTiter-Glo
[3] = BaF3_EGFR LR/CS cells, ~72 hours, CellTiter-Glo
[4] = BaF3_EGFR d19/CS cells, ~72 hours, CellTiter-Glo

recombinant human EGFR exon 19 deletion/C797S double mutant protein, sequence (P00533 other isoform, or with tags, fused parts or gaps C797S/del 1-668/del 746-750 limits assumed): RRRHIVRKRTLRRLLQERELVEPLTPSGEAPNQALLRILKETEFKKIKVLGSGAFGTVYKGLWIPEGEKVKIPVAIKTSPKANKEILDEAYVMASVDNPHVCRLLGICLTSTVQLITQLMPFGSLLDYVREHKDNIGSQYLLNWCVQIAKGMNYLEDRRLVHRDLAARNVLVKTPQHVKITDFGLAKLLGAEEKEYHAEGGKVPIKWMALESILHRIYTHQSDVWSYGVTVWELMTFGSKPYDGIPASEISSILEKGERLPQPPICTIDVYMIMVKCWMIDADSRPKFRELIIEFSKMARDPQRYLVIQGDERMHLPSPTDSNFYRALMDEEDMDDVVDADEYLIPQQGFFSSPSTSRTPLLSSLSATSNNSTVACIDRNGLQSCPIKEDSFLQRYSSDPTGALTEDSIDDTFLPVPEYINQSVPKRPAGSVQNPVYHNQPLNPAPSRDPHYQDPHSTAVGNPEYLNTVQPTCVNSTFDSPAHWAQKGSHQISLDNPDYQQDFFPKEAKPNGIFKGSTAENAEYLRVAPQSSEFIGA

Work on `Cc1cccnc1-c1cc2c(-c3cn(C4CS(=O)(=O)C4)nc3-c3ccc(F)cc3)ncnc2o1` [Example 241, 3-{3-(4-fluorophenyl)-4-[6-(3-methylpyridin-2-yl)furo[2,3-d]pyrimidin-4-yl]-1H-pyrazol-1-yl}-1λ6-thietane-1,1-dione] yielded an IC50 [1] of 1.2 nM, an IC50 (Ba/F3_EGFR WT cells; [2]) of 1520 nM and an IC50 (BaF3_EGFR LR/CS cells; [3]) of 189 nM. It also gave an IC50 (BaF3_EGFR d19/CS cells; [4]) of 131 nM.
Work on `Cc1nn(C)cc1-c1cc2c(-c3cn(C4CS(=O)(=O)C4)nc3-c3ccc(F)cc3)ncnc2o1` [Example 242, 3-{4-[6-(1,3-dimethyl-1H-pyrazol-4-yl)furo[2,3-d]pyrimidin-4-yl]-3-(4-fluorophenyl)-1H-pyrazol-1-yl}-16-thietane-1,1-dione] yielded an IC50 [1] of 0.18 nM, an IC50 (Ba/F3_EGFR WT cells; [2]) of 533 nM and an IC50 (BaF3_EGFR LR/CS cells; [3]) of 8.34 nM. It also gave an IC50 (BaF3_EGFR d19/CS cells; [4]) of 10.8 nM.
Compound `Cc1cc(-c2cc3c(-c4cn(C5CS(=O)(=O)C5)nc4-c4ccc(F)cc4)ncnc3o2)n(C)n1` [Example 243, 3-{4-[6-(1,3-dimethyl-1H-pyrazol-5-yl)furo[2,3-d]pyrimidin-4-yl]-3-(4-fluorophenyl)-1H-pyrazol-1-yl}-16-thietane-1,1-dione] has an IC50 [1] of 0.37 nM, an IC50 (Ba/F3_EGFR WT cells; [2]) of 1200 nM and an IC50 (BaF3_EGFR LR/CS cells; [3]) of 93 nM. For the same compound, the IC50 (BaF3_EGFR d19/CS cells; [4]) was 87.8 nM.
For `Cn1cc(-c2cc3c(-c4cn(C5CS(=O)(=O)C5)nc4-c4ccc(F)cc4)ncnc3o2)nn1` [Example 244, 3-{3-(4-fluorophenyl)-4-[6-(1-methyl-1H-1,2,3-triazol-4-yl)furo[2,3-d]pyrimidin-4-yl]-1H-pyrazol-1-yl}-16-thietane-1,1-dione], the IC50 [1] was 0.55 nM, the IC50 (Ba/F3_EGFR WT cells; [2]) was 1040 nM and the IC50 (BaF3_EGFR LR/CS cells; [3]) was 91.7 nM. The IC50 (BaF3_EGFR d19/CS cells; [4]) was 96.2 nM.
Work on `Cc1ccccc1-c1cc2c(-c3cn(C4CS(=O)(=O)C4)nc3-c3ccc(F)cc3)ncnc2o1` [Example 245, 3-{3-(4-fluorophenyl)-4-[6-(2-methylphenyl)furo[2,3-d]pyrimidin-4-yl]-1H-pyrazol-1-yl}-16-thietane-1,1-dione] yielded an IC50 [1] of 0.31 nM, an IC50 (Ba/F3_EGFR WT cells; [2]) of 3210 nM and an IC50 (BaF3_EGFR LR/CS cells; [3]) of 82.1 nM. The IC50 (BaF3_EGFR d19/CS cells; [4]) was 69.9 nM.
`O=S1(=O)CC(n2cc(-c3ncnc4oc(-c5nccs5)cc34)c(-c3ccc(F)cc3)n2)C1` [Example 248, 3-{3-(4-fluorophenyl)-4-[6-(1,3-thiazol-2-yl)furo[2,3-d]pyrimidin-4-yl]-1H-pyrazol-1-yl}-16-thietane-1,1-dione] gave an IC50 [1] of 0.42 nM, an IC50 (Ba/F3_EGFR WT cells; [2]) of 2550 nM and an IC50 (BaF3_EGFR LR/CS cells; [3]) of 100 nM. The IC50 (BaF3_EGFR d19/CS cells; [4]) was 92.7 nM.
With `Cc1ncccc1-c1cc2c(-c3cn(C4CS(=O)(=O)C4)nc3-c3ccc(F)cc3)ncnc2o1` [Example 249, 3-{3-(4-fluorophenyl)-4-[6-(2-methylpyridin-3-yl)furo[2,3-d]pyrimidin-4-yl]-1H-pyrazol-1-yl}-1λ6-thietane-1,1-dione] the IC50 [1] was 0.25 nM, the IC50 (Ba/F3_EGFR WT cells; [2]) was 4510 nM and the IC50 (BaF3_EGFR LR/CS cells; [3]) was 103 nM. It also gave an IC50 (BaF3_EGFR d19/CS cells; [4]) of 104 nM.
In the case of `Cn1cc(-c2cc3c(-c4cn(C5CS(=O)(=O)C5)nc4-c4ccc(F)cc4)ncnc3o2)cn1` [Example 250, 3-{3-(4-fluorophenyl)-4-[6-(1-methyl-1H-pyrazol-4-yl)furo[2,3-d]pyrimidin-4-yl]-1H-pyrazol-1-yl}-16-thietane-1,1-dione], the IC50 [1] is reported as 0.05 nM, the IC50 (Ba/F3_EGFR WT cells; [2]) is reported as 696 nM and the IC50 (BaF3_EGFR LR/CS cells; [3]) is reported as 3.54 nM. The IC50 (BaF3_EGFR d19/CS cells; [4]) was 9.26 nM.
In the case of `Cc1nn(C)cc1-c1cc2c(-c3cn(CC(C)(C)O)nc3-c3ccc(F)cc3)ncnc2o1` [Example 251, 1-{4-[6-(1,3-dimethyl-1H-pyrazol-4-yl)furo[2,3-d]pyrimidin-4-yl]-3-(4-fluorophenyl)-1H-pyrazol-1-yl}-2-methylpropan-2-ol], the IC50 [1] is reported as 0.2 nM, the IC50 (Ba/F3_EGFR WT cells; [2]) is reported as 745 nM and the IC50 (BaF3_EGFR LR/CS cells; [3]) is reported as 8.08 nM. For the same compound, the IC50 (BaF3_EGFR d19/CS cells; [4]) was 12.8 nM.
Work on `Cc1nn(C)c(C)c1-c1cc2c(-c3cn(CC(C)(C)O)nc3-c3ccc(F)cc3)ncnc2o1` [Example 252, 1-{3-(4-fluorophenyl)-4-[6-(1,3,5-trimethyl-1H-pyrazol-4-yl)furo[2,3-d]pyrimidin-4-yl]-1H-pyrazol-1-yl}-2-methylpropan-2-ol] yielded an IC50 [1] of 0.09 nM, an IC50 (Ba/F3_EGFR WT cells; [2]) of 630 nM and an IC50 (BaF3_EGFR LR/CS cells; [3]) of 8.87 nM. The IC50 (BaF3_EGFR d19/CS cells; [4]) was 21.9 nM.
`Cc1cccc(-c2cc3c(-c4cn(C5CS(=O)(=O)C5)nc4-c4ccc(F)cc4)ncnc3o2)n1` [Example 253, 3-{3-(4-fluorophenyl)-4-[6-(6-methylpyridin-2-yl)furo[2,3-d]pyrimidin-4-yl]-1H-pyrazol-1-yl}-16-thietane-1,1-dione] gave an IC50 [1] of 0.2 nM, an IC50 (Ba/F3_EGFR WT cells; 72 h) of 7740 nM and an IC50 (BaF3_EGFR LR/CS cells; 72 h) of 51.6 nM. It also gave an IC50 (BaF3_EGFR d19/CS cells; 72 h) of 87.7 nM.
Work on `Cn1cnc(-c2cc3c(-c4cn(CC(C)(C)O)nc4-c4ccc(F)cc4)ncnc3o2)c1` [Example 254, 1-{3-(4-fluorophenyl)-4-[6-(1-methyl-1H-imidazol-4-yl)furo[2,3-d]pyrimidin-4-yl]-1H-pyrazol-1-yl}-2-methylpropan-2-ol] yielded an IC50 [1] of 0.11 nM, an IC50 (Ba/F3_EGFR WT cells; [2]) of 442 nM and an IC50 (BaF3_EGFR LR/CS cells; [3]) of 3.05 nM. For the same compound, the IC50 (BaF3_EGFR d19/CS cells; [4]) was 5.01 nM.
Compound `CC(C)(O)Cn1cc(-c2ncnc3oc(-c4cccnc4)cc23)c(-c2ccc(F)cc2)n1` [Example 255, 1-{3-(4-fluorophenyl)-4-[6-(pyridin-3-yl)furo[2,3-d]pyrimidin-4-yl]-1H-pyrazol-1-yl}-2-methylpropan-2-ol] has an IC50 [1] of 0.47 nM, an IC50 (Ba/F3_EGFR WT cells; [2]) of 1700 nM and an IC50 (BaF3_EGFR LR/CS cells; [3]) of 51 nM. The IC50 (BaF3_EGFR d19/CS cells; [4]) was 32.4 nM.
Work on `Cn1cc(-c2cc3c(-c4cn([C@H]5C[C@@H](S(C)(=O)=O)C5)nc4-c4ccc(F)cc4)ncnc3o2)cn1` [Example 256, 4-{3-(4-fluorophenyl)-1-[(1s,3s)-3-(methanesulfonyl)cyclobutyl]-1H-pyrazol-4-yl}-6-(1-methyl-1H-pyrazol-4-yl)furo[2,3-d]pyrimidine] yielded an IC50 [1] of 0.19 nM, an IC50 (Ba/F3_EGFR WT cells; [2]) of 403 nM and an IC50 (BaF3_EGFR LR/CS cells; [3]) of 5.23 nM. For the same compound, the IC50 (BaF3_EGFR d19/CS cells; [4]) was 11.2 nM.
`CC(C)(O)Cn1cc(-c2ncnc3oc(-c4ccccn4)cc23)c(-c2ccc(F)cc2)n1` [Example 257, 1-{3-(4-fluorophenyl)-4-[6-(pyridin-2-yl)furo[2,3-d]pyrimidin-4-yl]-1H-pyrazol-1-yl}-2-methylpropan-2-ol] gave an IC50 [1] of 0.2 nM, an IC50 (Ba/F3_EGFR WT cells; [2]) of 1010 nM and an IC50 (BaF3_EGFR LR/CS cells; [3]) of 18.2 nM. The IC50 (BaF3_EGFR d19/CS cells; [4]) was 20.8 nM.
`Cc1c(-c2cc3c(-c4cn(CC(C)(C)O)nc4-c4ccc(F)cc4)ncnc3o2)cnn1C` [Example 258, 1-{4-[6-(1,5-dimethyl-1H-pyrazol-4-yl)furo[2,3-d]pyrimidin-4-yl]-3-(4-fluorophenyl)-1H-pyrazol-1-yl}-2-methylpropan-2-ol] showed an IC50 [1] of 0.16 nM, an IC50 (Ba/F3_EGFR WT cells; [2]) of 976 nM and an IC50 (BaF3_EGFR LR/CS cells; [3]) of 12.7 nM. It also gave an IC50 (BaF3_EGFR d19/CS cells; [4]) of 18.5 nM.
`Cn1cnc(-c2cc3c(-c4cn([C@H]5C[C@@H](S(C)(=O)=O)C5)nc4-c4ccc(F)cc4)ncnc3o2)c1` [Example 259, 4-{3-(4-fluorophenyl)-1-[(1s,3s)-3-(methanesulfonyl)cyclobutyl]-1H-pyrazol-4-yl}-6-(1-methyl-1H-imidazol-4-yl)furo[2,3-d]pyrimidine] was tested, and the IC50 [1] was 0.1 nM, the IC50 (Ba/F3_EGFR WT cells; [2]) was 498 nM and the IC50 (BaF3_EGFR LR/CS cells; [3]) was 4.44 nM. It also gave an IC50 (BaF3_EGFR d19/CS cells; [4]) of 14.4 nM.
`CC(=O)N1C=C(c2cc3c(-c4cn(CC(C)(C)O)nc4-c4ccc(F)cc4)ncnc3o2)CCC1` [Example 260, 1-[5-{4-[3-(4-fluorophenyl)-1-(2-hydroxy-2-methylpropyl)-1H-pyrazol-4-yl]furo[2,3-d]pyrimidin-6-yl}-3,4-dihydropyridin-1 (2H)-yl]ethan-1-one] was tested, and the IC50 [1] was 0.35 nM, the IC50 (Ba/F3_EGFR WT cells; [2]) was 1920 nM and the IC50 (BaF3_EGFR LR/CS cells; [3]) was 17 nM. The IC50 (BaF3_EGFR d19/CS cells; [4]) was 33 nM.
